The results in this text go back to PMC11576293, “New series of 4,6-diaryl pyrimidines: facile synthesis and antiproliferative activity as dual EGFR/VEGFR-2 inhibitors” (Frontiers in Chemistry, 2024).

Data set [1] can be described thus: Cell viability assay (MTT) on normal cells. The note with it: human, MCF-10A normal mammary gland epithelial cells, 4 days incubation. Format: cell-based.
Data set [2] has as its system four cancer cell lines (A-549, MCF-7, Panc-1, HT-29). Briefly: Antiproliferative assay, average over four cancer cell lines. The format is cell-based. The note with it: Homo sapiens; average of the four cancer cell lines; read-out: Average IC50 (GI50). An excerpt:
Table 2 presents the four cancer cell lines’ median inhibitory concentration (IC50) and GI50 (average IC50) values.
The IC50 values were derived from dose-response tests. The reported data are derived from at least two independent studies, each comprising three replicates per concentration. See Supplementary Material A1 for more details.

Another data set concerns MCF-7. Briefly: Antiproliferative assay (MTT). The format is cell-based. The note with it: Homo sapiens, MCF7, MCF-7 (breast), read-out: Antiproliferative activity IC50 ± SEM, MCF-7. Summed up: (§1)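 MTT assay on tumour cell lines, compound in 0.1% DMSO final, 96 h at 37 °C. MTT at 0.4 mg/mL for 3 h, then DMSO solubilisation and absorbance at 540 nm. IC50 from dose-response, at least two independent runs in triplicate.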

The test system of a further data set is HT-29. Briefly: Antiproliferative assay (MTT). The note with it: Homo sapiens, HT-29 (colon), read-out: Antiproliferative activity IC50 ± SEM, HT-29. Format: cell-based. A digest of the protocol:
as §1

A further data set deals with Panc-1. Briefly: Antiproliferative assay (MTT). The note with it: Homo sapiens, Panc-1 (pancreatic), read-out: Antiproliferative activity IC50 ± SEM, Panc-1. The format is cell-based. A digest of the protocol:
as §1

A further data set deals with A-549. Briefly: Antiproliferative assay (MTT). Format: cell-based. The note with it: Homo sapiens, A549, A-549 (lung), read-out: Antiproliferative activity IC50 ± SEM, A-549. A digest of the protocol: as §1
A further data set deals with MCF7. Briefly: NCI-60 single-dose screen. Format: cell-based. The note with it: Homo sapiens, single dose 10 µM, '-' = no inhibition, read-out: % Growth Inhibition. How it is done:
(§2) The National Cancer Institute’s Developmental Therapeutic Program (www.dtp.nci.nih.gov) has tested compounds 9–29 (except compounds 21 and 22) against 60 cancer cell lines from nine types (leukemia, lung, colon, CNS, melanoma, ovarian, renal, prostate, and breast cancer) at a single dose (10 μM) ([El-Sherief et al., 2018]). […] The most sensitive cells included leukemia (SR, K-562, and MOLT-4), lung (NCI-H522, […], and EKVX), breast (MCF-7 and T-47D), colon (HCT-15 and HT-29), and ovarian (NCI/ADR-RES).
(§3) The National Cancer Institute’s Developmental Therapeutic Program (www.dtp.nci.nih.gov) evaluated compounds 9–29 (excluding 21 and 22) against 60 cancer cell lines from nine categories (leukemia, lung, colon, CNS, melanoma, ovarian, renal, prostate, and breast cancer) at a single dose (10 μM) ([El-Sherief et al., 2018]). See Supplementary Material A1 for more details.

For a further data set, the system named is HCC-2998. Briefly: NCI-60 single-dose screen. The format is cell-based. The note with it: Homo sapiens, single dose 10 µM, '-' = no inhibition, read-out: % Growth Inhibition. As for the experimental part:
as §2, §3

Another data set concerns HS 578T. Briefly: NCI-60 single-dose screen. Format: cell-based. The note with it: Homo sapiens, single dose 10 µM, '-' = no inhibition, read-out: % Growth Inhibition. As for the experimental part:
as §2, §3

The subject of a further data set is SF-268. Briefly: NCI-60 single-dose screen. The format is cell-based. The note with it: Homo sapiens, single dose 10 µM, '-' = no inhibition, read-out: % Growth Inhibition. How it is done:
as §2, §3

Another data set concerns SK-MEL-5. Briefly: NCI-60 single-dose screen. The format is cell-based. The note with it: Homo sapiens, single dose 10 µM, '-' = no inhibition, read-out: % Growth Inhibition. How it is done: as §2, §3

`CCSc1nc(-c2ccc(Cl)cc2)cc(-c2ccc(OC)c(OC)c2)n1` [Compound 24, 4-(4-Chlorophenyl)-2-(ethylthio)-6-(3,4-dimethoxyphenyl)pyrimidine] registered a melting point of 229 to 231 °C. In addition, the viability at 4 days, 50 µM in [1] was determined as 91%. The IC50 in data set [2] amounted to 31 nM. The IC50 with MCF-7 came to 33 ± 3 nM. The half-inhibitory concentration (IC50) in the data set with HT-29 came out at 31 ± 3 nM. Further, the IC50 in the data set with Panc-1 is 30 ± 3 nM. Besides, the IC50 with A-549 amounted to 30 ± 3 nM. The inhibition at 10 µM in the data set on MCF7 was found to be 18.5%. Besides, the inhibition at 10 µM in the data set with HCC-2998 is 4.44%. Also, the inhibition at 10 µM in the data set with HS 578T worked out at 20.6%. Besides, the inhibition at 10 µM in the data set with SF-268 was found to be 16.9%. The inhibition at 10 µM with SK-MEL-5 turned out to be 28.9%.
For the molecule `CCCSc1nc(-c2ccc(Cl)cc2)cc(-c2ccc(OC)c(OC)c2)n1` [Compound 25, 4-(4-Chlorophenyl)-6-(3,4-dimethoxyphenyl)-2-(propylthio)pyrimidine], the melting point lay in the range of 217 to 219 °C. Further, the viability at 4 days, 50 µM in [1] came out at 91%. Besides, the IC50 in data set [2] came out at 33 nM. Moreover, in the data set with MCF-7, the IC50 turned out to be 34 ± 3 nM. Also, the half-inhibitory concentration (IC50) in the data set with HT-29 turned out to be 32 ± 3 nM. In addition, in the data set with Panc-1, the IC50 was determined as 32 ± 3 nM. Besides, in the data set on A-549, the IC50 stood at 32 ± 3 nM. In addition, the inhibition at 10 µM with MCF7 was 17.5%. Also, the inhibition at 10 µM in the data set with HCC-2998 was determined as 4.26%. Also, the inhibition at 10 µM in the data set on HS 578T is less than 0%. Besides, the inhibition at 10 µM in the data set on SF-268 amounted to 6.85%. Also, the inhibition at 10 µM with SK-MEL-5 stood at 0.38%.
For `COc1ccc(-c2cc(-c3ccc(Cl)cc3)nc(SC(C)C)n2)cc1OC` [Compound 26, 4-(4-Chlorophenyl)-2-(isopropylthio)-6-(3,4-dimethoxyphenyl)pyrimidine], the melting point was in the range of 233 to 253 °C. Also, the viability at 4 days, 50 µM in data set [1] came to 90%. In data set [2], the IC50 was determined as 41 nM. In addition, the IC50 in the data set on MCF-7 was 42 ± 3 nM. Besides, the IC50 in the data set on HT-29 was found to be 42 ± 3 nM. For the same molecule, the half-maximal inhibitory concentration (IC50) with Panc-1 turned out to be 40 ± 3 nM. The IC50 with A-549 was 40 ± 3 nM. Besides, in the data set on MCF7, the inhibition at 10 µM turned out to be 18.1%. The inhibition at 10 µM in the data set on HCC-2998 was less than 0%. In the data set with HS 578T, the inhibition at 10 µM was less than 0%. Moreover, in the data set with SF-268, the inhibition at 10 µM is less than 0%. Also, the inhibition at 10 µM with SK-MEL-5 was less than 0%.
The molecule `C=CCSc1nc(-c2ccc(Cl)cc2)cc(-c2ccc(OC)c(OC)c2)n1` [Compound 27, 2-(Allylthio)-4-(4-chlorophenyl)-6-(3,4-dimethoxyphenyl)pyrimidine] yielded a melting point of 244 to 246 °C. This molecule also came in with a viability at 4 days, 50 µM in data set [1] of 89%. Besides, the IC50 in [2] was found to be 59 nM. The concentration for half-maximal inhibition (IC50) in the data set on MCF-7 was 60 ± 6 nM. In the data set on HT-29, the IC50 was 60 ± 6 nM. In the data set with Panc-1, the concentration for half-maximal inhibition (IC50) was 58 ± 5 nM. In addition, in the data set with A-549, the half-maximal inhibitory concentration (IC50) was 56 ± 5 nM. In addition, the inhibition at 10 µM in the data set with MCF7 was 17.9%. Further, the inhibition at 10 µM in the data set with HCC-2998 is less than 0%. Besides, in the data set on HS 578T, the inhibition at 10 µM was less than 0%. The inhibition at 10 µM in the data set with SF-268 is less than 0%. In addition, the inhibition at 10 µM in the data set on SK-MEL-5 was determined as 12.2%.
As to `COc1ccc(-c2cc(-c3ccc(Cl)cc3)nc(SCc3ccccc3)n2)cc1OC` [Compound 28, 2-(Benzylthio)-4-(4-chlorophenyl)-6-(3,4-dimethoxyphenyl)pyrimidine], the melting point fell in the range of 239 to 241 °C. The molecule further gave a viability at 4 days, 50 µM in data set [1] of 92%. In data set [2], the IC50 is 41 nM. The IC50 in the data set with MCF-7 was 43 ± 3 nM. In the data set with HT-29, the IC50 was found to be 41 ± 3 nM. Besides, the IC50 with Panc-1 amounted to 40 ± 3 nM. Further, the 50% inhibitory concentration (IC50) with A-549 amounted to 39 ± 3 nM. Moreover, the inhibition at 10 µM with MCF7 was determined as 12.9%. Moreover, the inhibition at 10 µM in the data set with HCC-2998 was less than 0%. In addition, the inhibition at 10 µM with HS 578T amounted to 18.2%. In addition, the inhibition at 10 µM in the data set on SF-268 came out at 10.8%. For the same molecule, in the data set on SK-MEL-5, the inhibition at 10 µM is 30.1%.
Turning to `COc1ccc(CSc2nc(-c3ccc(Cl)cc3)cc(-c3ccc(OC)c(OC)c3)n2)cc1` [Compound 29, 2-(4-Methoxybenzylthio)-4-(4-chlorophenyl)-6-(3,4-dimethoxyphenyl)pyrimidine], the melting point lay in the range of 279 to 281 °C. Moreover, the viability at 4 days, 50 µM in [1] is 91%. Further, in [2], the concentration for half-maximal inhibition (IC50) came to 24 nM. For the same molecule, in the data set with MCF-7, the IC50 was 25 ± 2 nM. Moreover, in the data set on HT-29, the IC50 turned out to be 24 ± 2 nM. Moreover, in the data set with Panc-1, the IC50 was found to be 23 ± 2 nM. Moreover, the IC50 with A-549 came to 23 ± 2 nM. For the same molecule, the inhibition at 10 µM in the data set with MCF7 was 27.4%. In addition, the inhibition at 10 µM in the data set with HCC-2998 was less than 0%. Further, the inhibition at 10 µM in the data set with HS 578T is 37.5%. In the data set with SF-268, the inhibition at 10 µM turned out to be 33%. In addition, in the data set on SK-MEL-5, the inhibition at 10 µM was determined as 22.6%.
